In the supplement of paper PMC4862054:

Columns and labels:
HDQ-P1 [1] = assay: drug sensitivity score (DSS), CellTiter-Blue viability (DSS (AUC-based score)); higher = stronger viability inhibition; extreme values may be limits of the assay; settings: incubation time: 72 h
Protocol: (§1)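 DSRT with the CellTiter-Blue (resazurin reduction) viability readout, fluorescence 560/590 nm, 72 h incubation. Plates were normalised to DMSO and benzethonium chloride controls. DSS is computed from the area under the fitted dose-response curve (5 or 9 concentrations).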

BT-549 [2] = assay: as above; settings: incubation time: 72 h
Protocol: as §1

MDA-MB-453 = assay: as above; settings: incubation time: 72 h
Protocol: as §1

SK-BR-3 = assay: as above; settings: incubation time: 72 h
Protocol: as §1

CAL-85-1 = assay: as above; settings: incubation time: 72 h
Protocol: as §1

DU-4475 [3] = assay: as above; settings: incubation time: 72 h
Protocol: as §1

MDA-MB-436 [4] = assay: as above; settings: incubation time: 72 h
Protocol: as §1

MFM-223 [5] = assay: as above; settings: incubation time: 72 h
Protocol: as §1

CAL-148 [6] = assay: as above; settings: incubation time: 72 h
Protocol: as §1

MDA-MB-468 [7] = assay: as above; settings: incubation time: 72 h
Protocol: as §1

BT-474 [8] = assay: as above; settings: incubation time: 72 h
Protocol: as §1

CAL-120 [9] = assay: as above; settings: incubation time: 72 h
Protocol: as §1

CAL-51 [10] = assay: as above; settings: incubation time: 72 h
Protocol: as §1

Hs578T = assay: as above; settings: incubation time: 72 h
Protocol: as §1

MDA-MB-231 = assay: as above; settings: incubation time: 72 h
Protocol: as §1

HCC1143 = assay: as above; settings: incubation time: 72 h
Protocol: as §1

HCC1937 = assay: as above; settings: incubation time: 72 h
Protocol: as §1

HCC1599 = assay: as above; settings: incubation time: 72 h
Protocol: as §1

HDQ-P1 [11] = assay: normalised viability (% of control), CellTiter-Blue; higher = more viable cells (about 100 = DMSO control); settings: 10 nM; incubation time: 72 h
Protocol: (§2)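 DSRT, CellTiter-Blue viability, 72 h incubation. Signal is normalised to DMSO and benzethonium chloride controls. Value is the normalised response at dose 3.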

BT-549 [12] = assay: as above; settings: 100 nM; incubation time: 72 h
Protocol: as §2

DU-4475 [13] = assay: as above; settings: 10 nM; incubation time: 72 h
Protocol: as §2

MDA-MB-436 [14] = assay: as above; settings: 100 nM; incubation time: 72 h
Protocol: as §2

MFM-223 [15] = assay: as above; settings: 100 nM; incubation time: 72 h
Protocol: as §2

CAL-148 [16] = assay: as above; settings: 10 nM; incubation time: 72 h
Protocol: as §2

MDA-MB-468 [17] = assay: as above; settings: 100 nM; incubation time: 72 h
Protocol: as §2

BT-474 [18] = assay: as above; settings: 100 nM; incubation time: 72 h
Protocol: as §2

CAL-120 [19] = assay: as above; settings: 100 nM; incubation time: 72 h
Protocol: as §2

CAL-51 [20] = assay: as above; settings: 10 nM; incubation time: 72 h
Protocol: as §2

Structure (SMILES) | drug sensitivity score (HDQ-P1 [1]) | drug sensitivity score (BT-549 [2]) | drug sensitivity score (MDA-MB-453) | drug sensitivity score (SK-BR-3) | drug sensitivity score (CAL-85-1) | drug sensitivity score (DU-4475 [3]) | drug sensitivity score (MDA-MB-436 [4]) | drug sensitivity score (MFM-223 [5]) | drug sensitivity score (CAL-148 [6]) | drug sensitivity score (MDA-MB-468 [7]) | drug sensitivity score (BT-474 [8]) | drug sensitivity score (CAL-120 [9]) | drug sensitivity score (CAL-51 [10]) | drug sensitivity score (Hs578T) | drug sensitivity score (MDA-MB-231) | drug sensitivity score (HCC1143) | drug sensitivity score (HCC1937) | drug sensitivity score (HCC1599) | normalised viability (HDQ-P1 [11]) | normalised viability (BT-549 [12]) | normalised viability (DU-4475 [13]) | normalised viability (MDA-MB-436 [14]) | normalised viability (MFM-223 [15]) | normalised viability (CAL-148 [16]) | normalised viability (MDA-MB-468 [17]) | normalised viability (BT-474 [18]) | normalised viability (CAL-120 [19]) | normalised viability (CAL-51 [20])
C[C@]1(O)C[C@@H](c2nc(-c3ccc4ccc(-c5ccccc5)nc4c3)c3c(N)nccn32)C1 [OSI-906] | 6.19 | 3.58 | 0 | 6.92 | 1.93 | 0 | 0 | 0 | 0 | 0 | 1.46 | 0 | 1.03 | 2 | 0 | 2.39 | 4.24 | 3.98 | 76% | 84.4% | 94.1% | 94.5% | 95.5% | 101% | 98.6% | 110% | 90% | 97.4%
O=NN(CCCl)C(=O)NCCCl [Carmustine] | 0 | 0 | 0 | 0 | 0 | 0 | 0 | 0 | 0 | 0 | 0 | 0 | 0 | 0 | 0 | 0 | 0 | 0 | 105% | 111% | 108% | 119% | 83.8% | 91.5% | 123% | 111% | 91.3% | 105%
Cc1sc2c(c1C)C(c1ccc(Cl)cc1)=N[C@@H](CC(=O)OC(C)(C)C)c1nnc(C)n1-2 [(+)JQ1] | 0 | 10.7 | 17.2 | 8.66 | 10.5 | 17.1 | 0 | 10.1 | 9.78 | 5.95 | 0 | 11.2 | 3.04 | 11 | 12.9 | 6.54 | 6.88 | 7.63 | 98.4% | 80.9% | 88.3% | 136% | 85.1% | 94.7% | 108% | 110% | 79.1% | 98.5%
Nc1ncn([C@@H]2O[C@H](CO)[C@@H](O)[C@H]2O)c(=O)n1 [Azacitidine] | 0 | 3.42 | 0 | 0 | 0 | 0 | 3.01 | 0 | 0 | 11.3 | 0 | 0.768 | 0 | 3.33 | 0 | 0 | 5.11 | 0 | 108% | 106% | 118% | 89.3% | 94.7% | 82.7% | 103% | 107% | 90.9% | 108%
